Results on 7 compounds are retold here after PMC5580309, “Molecular-scale features that govern the effects of O-glycosylation on a carbohydrate-binding module” (Chemical Science, 2015).

Bridge positions count the residues as written; N and C are the ends. Peptide text beside a SMILES is read from it. * marks the point of attachment. X8 = O=P(O)(O)OC[C@H]1O[C@H](O[C@H]2[C@@H](O)[C@H](O)[C@@H](CO)O[C@@H]2*)[C@@H](O)[C@@H](O)[C@@H]1O; X1 = OC[C@H]1O[C@H](OC[C@H]2O[C@H](*)[C@@H](O)[C@@H](O)[C@@H]2O)[C@@H](O)[C@@H](O)[C@@H]1O; X2 = OC[C@H]1O[C@H](O[C@H]2[C@@H](O)[C@H](O)[C@@H](CO)O[C@@H]2*)[C@@H](O)[C@@H](O)[C@@H]1O; X4 = OC[C@H]1O[C@H](OC[C@H]2O[C@H](*)[C@@H](O)[C@@H](O)[C@@H]2O)[C@H](O)[C@@H](O)[C@@H]1O; βGal = OC[C@H]1O[C@@H](*)[C@H](O)[C@@H](O)[C@H]1O; X6 = C[C@@H]1O[C@@H](*)[C@@H](O)[C@H](O)[C@@H]1O

The data set has as its target T1, thermolysin (Bacillus thermoproteolyticus, UniProt P00800).
T1 sequence (P00800 233-548): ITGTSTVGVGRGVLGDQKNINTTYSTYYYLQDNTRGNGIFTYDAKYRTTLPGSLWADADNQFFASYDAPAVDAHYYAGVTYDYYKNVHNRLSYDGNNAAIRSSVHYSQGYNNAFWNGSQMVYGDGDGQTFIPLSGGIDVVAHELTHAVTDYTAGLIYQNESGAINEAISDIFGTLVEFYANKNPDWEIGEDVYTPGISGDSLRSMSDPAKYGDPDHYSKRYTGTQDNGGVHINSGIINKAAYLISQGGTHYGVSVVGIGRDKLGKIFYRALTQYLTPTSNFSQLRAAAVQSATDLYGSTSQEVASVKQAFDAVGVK
Briefly: Proteolytic stability: half-life to thermolysin degradation. Format: in vitro ADME. To be noted: for Change in Half-Life to Thermolysin Degradation: glyco-variant minus its corresponding unglycosylated CBM (e.g. 2-1), *** not used in the correlation plot; for half-life: thermolysin (isolated protease), thermolysin degradation, mean of three trials ± SD, procedures as described previously (ESI ref 18). The protocol: All error bars reported are standard deviations of data achieved from three separate trials.
cellulose that were determined in accordance with our procedures as described previously 18.
The results are presented as mean of three trials ± SD. *Denotes an averaged value of four trials

A word on the half-life: it is the time needed for the level to fall by half in the phase considered. For the compound `CC[C@H](C)[C@@H]1NC(=O)CNC(=O)CNC(=O)[C@@H](NC(=O)[C@H](CCC(N)=O)NC(=O)CNC(=O)[C@H](Cc2ccc(O)cc2)NC(=O)[C@H](Cc2c[nH]cn2)NC(=O)[C@H](CO[C@@H]2O[C@H](CO)[C@H](O)[C@H](O)[C@H]2O)NC(=O)[C@H](CCC(N)=O)NC(=O)[C@@H](N)[C@@H](C)O)CSSC[C@@H]2NC(=O)[C@H]([C@@H](C)O)NC(=O)[C@H]([C@@H](C)O)NC(=O)CNC(=O)[C@H](CO)NC(=O)[C@H](C)NC(=O)[C@H](CSSC[C@@H](C(=O)N[C@@H](CC(C)C)C(=O)O)NC(=O)[C@H](CCC(N)=O)NC(=O)[C@H](CO)NC(=O)[C@H](Cc3ccc(O)cc3)NC(=O)[C@H](Cc3ccc(O)cc3)NC(=O)[C@@H]3CCCN3C(=O)[C@H](CC(N)=O)NC(=O)[C@H](CC(C)C)NC(=O)[C@H](C(C)C)NC(=O)[C@H](CCC(N)=O)NC2=O)NC(=O)[C@H](C(C)C)NC(=O)[C@H]([C@@H](C)O)NC(=O)[C@@H]2CCCN2C(=O)CNC(=O)[C@H](CO)NC(=O)[C@H](Cc2ccc(O)cc2)NC(=O)CNC1=O` [CBM variant 27] (H-TQS(βGal)HYGQCGGIGYSGPTVCASGTTCQVLNPYYSQCL-OH; disulfide 8-25, 19-35), the “Change in Half-Life to Thermolysin Degradation” value (from here on “Change in Half-Life”) is 3.6 min and the half-life is 17.4 ± 1.2 min.
In the same order, the values of `CC[C@H](C)[C@@H]1NC(=O)CNC(=O)CNC(=O)[C@@H](NC(=O)[C@H](CCC(N)=O)NC(=O)CNC(=O)[C@H](Cc2ccc(O)cc2)NC(=O)[C@H](Cc2c[nH]cn2)NC(=O)[C@H](CO[C@@H]2O[C@@H](C)[C@@H](O)[C@@H](O)[C@@H]2O)NC(=O)[C@H](CCC(N)=O)NC(=O)[C@@H](N)[C@@H](C)O)CSSC[C@@H]2NC(=O)[C@H]([C@@H](C)O)NC(=O)[C@H]([C@@H](C)O)NC(=O)CNC(=O)[C@H](CO)NC(=O)[C@H](C)NC(=O)[C@H](CSSC[C@@H](C(=O)N[C@@H](CC(C)C)C(=O)O)NC(=O)[C@H](CCC(N)=O)NC(=O)[C@H](CO)NC(=O)[C@H](Cc3ccc(O)cc3)NC(=O)[C@H](Cc3ccc(O)cc3)NC(=O)[C@@H]3CCCN3C(=O)[C@H](CC(N)=O)NC(=O)[C@H](CC(C)C)NC(=O)[C@H](C(C)C)NC(=O)[C@H](CCC(N)=O)NC2=O)NC(=O)[C@H](C(C)C)NC(=O)[C@H]([C@@H](C)O)NC(=O)[C@@H]2CCCN2C(=O)CNC(=O)[C@H](CO)NC(=O)[C@H](Cc2ccc(O)cc2)NC(=O)CNC1=O` [CBM variant 28] (H-TQS(X6)HYGQCGGIGYSGPTVCASGTTCQVLNPYYSQCL-OH; disulfide 8-25, 19-35) are 23.4 min and 37.2 ± 6.6 min.
Consider `CC[C@H](C)[C@@H]1NC(=O)CNC(=O)CNC(=O)[C@@H](NC(=O)[C@H](CCC(N)=O)NC(=O)CNC(=O)[C@H](Cc2ccc(O)cc2)NC(=O)[C@H](Cc2c[nH]cn2)NC(=O)[C@H](CO[C@H]2O[C@H](CO[C@H]3O[C@H](CO)[C@@H](O)[C@H](O)[C@@H]3O)[C@@H](O)[C@H](O)[C@@H]2O)NC(=O)[C@H](CCC(N)=O)NC(=O)[C@@H](N)[C@@H](C)O)CSSC[C@@H]2NC(=O)[C@H]([C@@H](C)O)NC(=O)[C@H]([C@@H](C)O)NC(=O)CNC(=O)[C@H](CO)NC(=O)[C@H](C)NC(=O)[C@H](CSSC[C@@H](C(=O)N[C@@H](CC(C)C)C(=O)O)NC(=O)[C@H](CCC(N)=O)NC(=O)[C@H](CO)NC(=O)[C@H](Cc3ccc(O)cc3)NC(=O)[C@H](Cc3ccc(O)cc3)NC(=O)[C@@H]3CCCN3C(=O)[C@H](CC(N)=O)NC(=O)[C@H](CC(C)C)NC(=O)[C@H](C(C)C)NC(=O)[C@H](CCC(N)=O)NC2=O)NC(=O)[C@H](C(C)C)NC(=O)[C@H]([C@@H](C)O)NC(=O)[C@@H]2CCCN2C(=O)CNC(=O)[C@H](CO)NC(=O)[C@H](Cc2ccc(O)cc2)NC(=O)CNC1=O` [CBM variant 29] (H-TQS(X1)HYGQCGGIGYSGPTVCASGTTCQVLNPYYSQCL-OH; disulfide 8-25, 19-35), for which the “Change in Half-Life” value was found to be 37.8 min and the half-life was 51.6 ± 1.8 min.
For `CC[C@H](C)[C@@H]1NC(=O)CNC(=O)CNC(=O)[C@@H](NC(=O)[C@H](CCC(N)=O)NC(=O)CNC(=O)[C@H](Cc2ccc(O)cc2)NC(=O)[C@H](Cc2c[nH]cn2)NC(=O)[C@H](CO[C@H]2O[C@H](CO[C@H]3O[C@H](CO)[C@@H](O)[C@H](O)[C@H]3O)[C@@H](O)[C@H](O)[C@@H]2O)NC(=O)[C@H](CCC(N)=O)NC(=O)[C@@H](N)[C@@H](C)O)CSSC[C@@H]2NC(=O)[C@H]([C@@H](C)O)NC(=O)[C@H]([C@@H](C)O)NC(=O)CNC(=O)[C@H](CO)NC(=O)[C@H](C)NC(=O)[C@H](CSSC[C@@H](C(=O)N[C@@H](CC(C)C)C(=O)O)NC(=O)[C@H](CCC(N)=O)NC(=O)[C@H](CO)NC(=O)[C@H](Cc3ccc(O)cc3)NC(=O)[C@H](Cc3ccc(O)cc3)NC(=O)[C@@H]3CCCN3C(=O)[C@H](CC(N)=O)NC(=O)[C@H](CC(C)C)NC(=O)[C@H](C(C)C)NC(=O)[C@H](CCC(N)=O)NC2=O)NC(=O)[C@H](C(C)C)NC(=O)[C@H]([C@@H](C)O)NC(=O)[C@@H]2CCCN2C(=O)CNC(=O)[C@H](CO)NC(=O)[C@H](Cc2ccc(O)cc2)NC(=O)CNC1=O` [CBM variant 30] (H-TQS(X4)HYGQCGGIGYSGPTVCASGTTCQVLNPYYSQCL-OH; disulfide 8-25, 19-35), the “Change in Half-Life” value came to 33 min and the half-life is 46.8 ± 6.6 min.
With `CC[C@H](C)[C@@H]1NC(=O)CNC(=O)CNC(=O)[C@@H](NC(=O)[C@H](CCC(N)=O)NC(=O)CNC(=O)[C@H](Cc2ccc(O)cc2)NC(=O)[C@H](Cc2c[nH]cn2)NC(=O)[C@H](CO[C@H]2O[C@H](CO)[C@@H](O)[C@H](O)[C@@H]2O[C@H]2O[C@H](COP(=O)(O)O)[C@@H](O)[C@H](O)[C@@H]2O)NC(=O)[C@H](CCC(N)=O)NC(=O)[C@@H](N)[C@@H](C)O)CSSC[C@@H]2NC(=O)[C@H]([C@@H](C)O)NC(=O)[C@H]([C@@H](C)O)NC(=O)CNC(=O)[C@H](CO)NC(=O)[C@H](C)NC(=O)[C@H](CSSC[C@@H](C(=O)N[C@@H](CC(C)C)C(=O)O)NC(=O)[C@H](CCC(N)=O)NC(=O)[C@H](CO)NC(=O)[C@H](Cc3ccc(O)cc3)NC(=O)[C@H](Cc3ccc(O)cc3)NC(=O)[C@@H]3CCCN3C(=O)[C@H](CC(N)=O)NC(=O)[C@H](CC(C)C)NC(=O)[C@H](C(C)C)NC(=O)[C@H](CCC(N)=O)NC2=O)NC(=O)[C@H](C(C)C)NC(=O)[C@H]([C@@H](C)O)NC(=O)[C@@H]2CCCN2C(=O)CNC(=O)[C@H](CO)NC(=O)[C@H](Cc2ccc(O)cc2)NC(=O)CNC1=O` [CBM variant 31] (H-TQS(X8)HYGQCGGIGYSGPTVCASGTTCQVLNPYYSQCL-OH; disulfide 8-25, 19-35), the “Change in Half-Life” value worked out at 12 min and the half-life was 25.8 ± 3 min.
In the case of `CC[C@H](C)[C@@H]1NC(=O)CNC(=O)CNC(=O)[C@@H](NC(=O)[C@H](CCC(N)=O)NC(=O)CNC(=O)[C@H](C)NC(=O)[C@H](Cc2c[nH]cn2)NC(=O)[C@H](CO[C@H]2O[C@H](CO)[C@@H](O)[C@H](O)[C@@H]2O[C@H]2O[C@H](CO)[C@@H](O)[C@H](O)[C@@H]2O)NC(=O)[C@H](CCC(N)=O)NC(=O)[C@@H](N)[C@@H](C)O)CSSC[C@@H]2NC(=O)[C@H]([C@@H](C)O)NC(=O)[C@H]([C@@H](C)O)NC(=O)CNC(=O)[C@H](CO)NC(=O)[C@H](C)NC(=O)[C@H](CSSC[C@@H](C(=O)N[C@@H](CC(C)C)C(=O)O)NC(=O)[C@H](CCC(N)=O)NC(=O)[C@H](CO)NC(=O)[C@H](Cc3ccc(O)cc3)NC(=O)[C@H](Cc3ccc(O)cc3)NC(=O)[C@@H]3CCCN3C(=O)[C@H](CC(N)=O)NC(=O)[C@H](CC(C)C)NC(=O)[C@H](C(C)C)NC(=O)[C@H](CCC(N)=O)NC2=O)NC(=O)[C@H](C(C)C)NC(=O)[C@H]([C@@H](C)O)NC(=O)[C@@H]2CCCN2C(=O)CNC(=O)[C@H](CO)NC(=O)[C@H](Cc2ccc(O)cc2)NC(=O)CNC1=O` [CBM variant 32] (H-TQS(X2)HAGQCGGIGYSGPTVCASGTTCQVLNPYYSQCL-OH; disulfide 8-25, 19-35), the “Change in Half-Life” value worked out at 1.2 min and the half-life was 6 ± 1.2 min.
`CC[C@H](C)[C@@H]1NC(=O)CNC(=O)CNC(=O)[C@@H](NC(=O)[C@H](CCC(N)=O)NC(=O)CNC(=O)[C@H](Cc2ccc(O)cc2)NC(=O)[C@H](Cc2c[nH]cn2)NC(=O)[C@@H](NC(=O)[C@H](CCC(N)=O)NC(=O)[C@@H](N)[C@@H](C)O)[C@@H](C)O[C@H]2O[C@H](CO)[C@@H](O)[C@H](O)[C@@H]2O[C@H]2O[C@H](CO)[C@@H](O)[C@H](O)[C@@H]2O)CSSC[C@@H]2NC(=O)[C@H]([C@@H](C)O)NC(=O)[C@H]([C@@H](C)O)NC(=O)CNC(=O)[C@H](CO)NC(=O)[C@H](C)NC(=O)[C@H](CSSC[C@@H](C(=O)N[C@@H](CC(C)C)C(=O)O)NC(=O)[C@H](CCC(N)=O)NC(=O)[C@H](CO)NC(=O)[C@H](Cc3ccc(O)cc3)NC(=O)[C@H](Cc3ccc(O)cc3)NC(=O)[C@@H]3CCCN3C(=O)[C@H](CC(N)=O)NC(=O)[C@H](CC(C)C)NC(=O)[C@H](C(C)C)NC(=O)[C@H](CCC(N)=O)NC2=O)NC(=O)[C@H](C(C)C)NC(=O)[C@H]([C@@H](C)O)NC(=O)[C@@H]2CCCN2C(=O)CNC(=O)[C@H](CO)NC(=O)[C@H](Cc2ccc(O)cc2)NC(=O)CNC1=O` [CBM variant 33] (H-TQT(X2)HYGQCGGIGYSGPTVCASGTTCQVLNPYYSQCL-OH; disulfide 8-25, 19-35): the “Change in Half-Life” value worked out at 72 min and the half-life was 93.6 ± 24 min.
